What was measured:
Format in all cases: biochemical
[1] = test system: protease isolated from Pseudomonas aeruginosa MCM B-327; assay: Effect of organic solvents on protease activity; conditions: for Enzyme activity: organic solvent 50% v/v, 30 min of incubation, Tris-HCl pH 8.0, 37° C., None = 42.77; for inhibition of the enzyme: 50% v/v, after 30 min of incubation
Description: The cell free supernatant was salt precipitated and used for this study in Tris-HCl buffer, pH 8.0 at 37° C.

[2] = test system: protease isolated from Pseudomonas aeruginosa MCM B-327; assay: Effect of metal ions on protease activity; conditions: Tris-HCl pH 8.0, 37° C.; for Enzyme activity: None = 42.77
Description: (§1) This example illustrates the effect of metal ions on activity of the protease isolated from Pseudomonas aeruginosa MCM B-327 when grown in soybean meal−tryptone (HiMedia) medium. The cell free supernatant was salt precipitated and used for this study in Tris-HCl buffer, pH 8.0 at 37° C.

[3] = test system: protease isolated from Pseudomonas aeruginosa MCM B-327; assay: Effect of inhibitors on protease activity; conditions: for Enzyme activity: incubated 30 min, None = 42.77
Description: as §1, with “inhibitors” for “metal ions”, “C. The enzyme and the inhibitor were incubated for 30 min prior to enzyme assay.” for “C.”

[4] = test system: protease isolated from Pseudomonas aeruginosa MCM B-327; assay: Effect of ingredients of detergents on protease activity; conditions: for Enzyme activity: incubated 30 min prior to assay, Tris-HCl pH 8.0, 37° C., None = 42.77; for effect of surfactant on protease activity (in words): 1%
Description: as §1, with “ingredients of detergents” for “metal ions”, “C. The enzyme and ingredients of detergent were incubated for 30 min prior to enzyme assay. The enzyme was stable in detergent ingredients while 20% inhibited by SDS.” for “C.”

[5] = inhibitor 1 mM, Tris-HCl pH 8.0, 37° C.

Compound | Enzyme activity [1] | effect of metal ion on enzyme activity (in words) [2] | Enzyme activity ([2]; metal ion at 5 mM) | also measured
CCCCC=O [1-pentanone] | 11.54 U/mg precipitate |  |  | 
CC(C)=O [Acetone] | 13.68 U/mg precipitate |  |  | 
c1ccccc1 [Benzene] | 11.54 U/mg precipitate |  |  | 
[Ca+2].[Cl-].[Cl-] [CaCl2] |  | resistant to inhibition | 42.34 U/mg precipitate | 
O=S(=O)([O-])[O-].[Cu+2] [CuSO4] |  | affected the enzyme activity considerably | 10.69 U/mg precipitate | 
O[C@@H](CS)[C@@H](O)CS [DTT, dithiothretol] |  |  |  | inhibition of the enzyme (in words) ([3]; 1 & 5 mM): completely inhibited; Enzyme activity [3, 5]: 0 U/mg precipitate; Enzyme activity ([3]; inhibitor 5 mM): 0 U/mg precipitate
O=C(O)CN(CCN(CC(=O)O)CC(=O)O)CC(=O)O [EDTA, Ethylenediamine tetra acetic acid] |  |  |  | Enzyme activity ([3]; inhibitor 2 mM): 32.93 U/mg precipitate; Enzyme activity ([3]; inhibitor 5 mM): 30.36 U/mg precipitate
CCO [Ethanol] | 3.84 U/mg precipitate |  |  | inhibition of the enzyme [1]: 91%
O=S(=O)([O-])[O-].[Fe+2] [FeSO4] |  | resistant to inhibition | 37.64 U/mg precipitate | 
[Cl][Hg][Cl] [HgCl2] |  | affected the enzyme activity considerably | 6.84 U/mg precipitate | Enzyme activity ([2]; HgCl2 at 1 mM): 9.83 U/mg precipitate
NC(=O)CI [Iodoacetamide] |  |  |  | Enzyme activity [3, 5]: 44.05 U/mg precipitate; Enzyme activity ([3]; inhibitor 5 mM): 43.62 U/mg precipitate
CC(C)CC(C)(C)C [Isooctane] | 28.65 U/mg precipitate |  |  | 
CO [Methanol] | 14.11 U/mg precipitate |  |  | 
O=S(=O)([O-])[O-].[Mg+2] [MgSO4] |  | resistant to inhibition | 42.77 U/mg precipitate | 
O=S(=O)([O-])[O-].[Mn+2] [MnSO4] |  | resistant to inhibition | 37.21 U/mg precipitate | 
[Cl-].[Na+] [NaCl] |  | resistant to inhibition | 41.06 U/mg precipitate | 
O=S(=O)(F)Cc1ccccc1 [PMSF, Phenyl methyl sulphonyl fluoride] |  |  |  | Enzyme activity [3, 5]: 40.20 U/mg precipitate; Enzyme activity ([3]; inhibitor 5 mM): 31.65 U/mg precipitate
CCCCCCCCCCCCOS(=O)(=O)[O-].[Na+] [SDS] |  |  |  | inhibition of the enzyme ([4]; detergent ingredient 1%, 30 min): 20%; Enzyme activity ([4]; detergent ingredient 1%): 34.21 U/mg precipitate
O=P(O)(O)OP(=O)(O)OP(=O)(O)O [Sodium tripolyphosphate] |  |  |  | Enzyme activity ([4]; detergent ingredient 1%): 44.05 U/mg precipitate
Cc1ccccc1 [Toluene] | 20.95 U/mg precipitate |  |  | inhibition of the enzyme [1]: 51%
CCCCCCCC/C=C\CCCCCCCC(=O)OCCOCC(OCCO)C1OCC(OCCO)C1OCCO (centres unmarked) [Tween 80] |  |  |  | effect of surfactant on protease activity (in words) ([4]; 30 min): no inhibitory effect; Enzyme activity ([4]; detergent ingredient 1%): 43.62 U/mg precipitate
O=S(=O)([O-])[O-].[Zn+2] [ZnSO4] |  | affected the enzyme activity considerably | 12.40 U/mg precipitate | 
CCCCCC [n-hexane] | 26.94 U/mg precipitate |  |  | 
Triton X100 |  |  |  | effect of surfactant on protease activity (in words) ([4]; 30 min): no inhibitory effect; Enzyme activity ([4]; detergent ingredient 1%): 41.49 U/mg precipitate
m-p-xylene | 28.65 U/mg precipitate |  |  | 
